Earlier results as cited in patent publication US20090098173A1, “TOPICAL PAIN RELIEF PRODUCT” (priority 2007, published 2009).

Conditions: as described in U.S. Pat. No. 7,189,760 / 7,030,273

CCOC(=O)CNC(=O)C1CC(C)CCC1C(C)C (stereo not shown) [ethyl ester of N-[[5-methyl-2-(1-methylethyl)cyclohexyl]carbonyl]glycine]
physiological cooling activity: substantially high physiological cooling activity
